The NIST ThermoML archive (doi:10.1016/j.jct.2013.05.019)
± gives the expanded uncertainty stated by the source.

Conditions: Liquid; for viscosity: Falling or rolling sphere viscometry; for mass density: Vibrating tube method; for electrical conductivity: Alternating current cell with electrodes

Compound	viscosity (293.15 K, 101 kPa) [mPa·s]	mass density (293.15 K, 101 kPa) [kg/m3]	electrical conductivity (298.15 K, 101 kPa) [S/m]	viscosity (298.15 K, 101 kPa) [mPa·s]	mass density (298.15 K, 101 kPa) [kg/m3]	viscosity (303.15 K, 101 kPa) [mPa·s]	mass density (303.15 K, 101 kPa) [kg/m3]	viscosity (308.15 K, 101 kPa) [mPa·s]	mass density (308.15 K, 101 kPa) [kg/m3]	viscosity (313.15 K, 101 kPa) [mPa·s]	mass density (313.15 K, 101 kPa) [kg/m3]	viscosity (293.15 K, 101.33 kPa) [mPa·s]	viscosity (298.15 K, 101.33 kPa) [mPa·s]	viscosity (303.15 K, 101.33 kPa) [mPa·s]	viscosity (308.15 K, 101.33 kPa) [mPa·s]	viscosity (313.15 K, 101.33 kPa) [mPa·s]
CC(=O)O.CCCCN [butylammonium acetate]	771.69 ± 71	959.61 ± 0.23	0.021 ± 0.001	546.35 ± 44	956.44 ± 0.23	397.17 ± 28	953.33 ± 0.23	294.59 ± 18	950.15 ± 0.23	222.24 ± 11	946.98 ± 0.23					
CCCC[NH3+].O=[N+]([O-])[O-] [n-butylammonium nitrate]	111.35 ± 3.6	1104.68 ± 0.31	0.867 ± 0.017	89.95 ± 2.5	1101.52 ± 0.31	73.04 ± 1.8	1098.38 ± 0.31	60.25 ± 1.3	1095.26 ± 0.31	50.12 ± 1.1	1092.17 ± 0.3					
O [water]												1.002 ± 0.021	0.89 ± 0.019	0.797 ± 0.017	0.718 ± 0.015	0.651 ± 0.014
